The source of these data is patent US20250188062A1, “TRIAZINE COMPOUNDS AND METHODS OF MAKING AND USING THE SAME” (Athos Therapeutics, Inc., priority 2021, published 2025).

In one experiment the target is JMJD3 (Homo sapiens, UniProt O15054). The experiment can be described thus: JMJD3 binding assay (Kd, affinity beads, qPCR readout). To be noted: 11-point 3-fold dilution series, 0.9% DMSO, room temperature 1 hour; read-out: JMJD3 Affinity (binding constant, Kd). How it is done: Test compounds were prepared as 111X stocks in 100% DMSO. Kd values are determined using an 11-point 3-fold compound dilution series with three DMSO control points. All compounds for Kd measurements were distributed by acoustic transfer (non-contact dispensing) in 100% DMSO. The compounds were then diluted directly into the assays such that the final concentration of DMSO was 0.9%. All reactions were performed in polypropylene 384-well plate. Each was a final volume of 0.02 ml. The assay plates were incubated at room temperature with shaking for 1 hour and the affinity beads were washed with wash buffer (lx PBS, 0.05% Tween 20). The beads were then re-suspended in elution buffer (lx PBS, 0.05% Tween 20, 0.5 μM non-biotinylated affinity ligand) and incubated at room temperature with shaking for 30 minutes. The kinase concentration in the eluates was measured by qPCR. Binding constants are calculated with a standard dose-response curve using the Hill equation:
The Hill Slope was set to −1. Curves were fitted using a non-linear least square fit with the Levenberg-Marquardt algorithm. The binding data is summarized in Table 2 where A is less than 100 nM, B is 100 to 500 nM, and C is greater than 500 nM.

Experiment [1] relates to THP-1 human monocytes. The experiment can be described thus: TNF-alpha ELISA (Quantikine) in LPS-treated THP-1 cells. The experiment is classed as cell-based. To be noted: 1 μM, 4 hrs before LPS 50 ng/ml; PMA 25 nM; ELISA of supernatants; FIG. 4A-C, p<0.05 / p<0.01. How it is done: THP-1 cells were grown to confluence and plated in 6-well plates. PMA (25 nM) was added to the medium and replaced with non-PMA containing medium 24 hrs later. ATH compounds (1 μM) or vehicle (0.1% DMSO) were added and allowed to incubate. After 4 hrs LPS (50 ng/ml) was added without replacement of the medium and supernatants were collected after 4 and […]. Media were placed on ice for cytokine detection using ELISA (Quantikine, R&D Systems).
JMJD3 inhibitors Compound 89, Compound 91 (FIG. 4A, p<005), Compound 97, Compound 92, Compound 93 (FIG. 4B, p<0.01), and Compound 94 (FIG. 4C, p<0.01) show suppression of TNF-alpha (TNFA) expression after LPS (lipopolysaccharide) treatment, in THP-1 human monocytes (FIG. 4A-C, p<0.05 for both).

In experiment [2] the test system is THP-1 human monocytes. As to the kind of experiment: Cellular assay for anti-inflammatory properties: cytokine ELISA multiplex in LPS-stimulated PMA-differentiated THP-1 macrophages. The experiment is classed as cell-based. To be noted: 1 μM, 4 hours before 100 ng/mL LPS for 4 or 24 hours; cytokine protein in media vs LPS+PMA only. How it is done: The anti-inflammatory properties of five JMJD3 inhibitors (99, 92, 93, 98, and 95, in no particularly order) were evaluated in an immune cellular assay targeting key pro-inflammatory cytokines involved in the pathogenesis of multiple autoimmune disease.
Specifically, THP-1 human monocytes were grown in 6-well plates (RPMI 1640+10% FBS+1% P/S). After washing with PBS the THP-1 cells were differentiated into macrophages using 20 nM of phorbol 12-myristate 13-acetate (PMA) for 24 hrs. 99, 92, 93, 98, and 95) (1 μM) were added into the macrophages, which are incubated for 4 hours before the addition of 100 ng/mL lipopolysaccharide (LPS) for either 4 or 24 hours. Next, the macrophages are collected via centrifugation at 1.2K rpm for 5 min and use their media to evaluate cytokine protein levels by using the Bio-rad Cytokine ELISA multiplex assay (cat. No M5000031YV). The supernatants from macrophages treated only with only LPS+PMA were collected and used as negative controls.

A further experiment relates to Naïve CD4+ T human cells. As to the kind of experiment: Cellular assay for FoxP3 induction activity (qPCR of FoxP3 mRNA). Particulars: CD4+ T cells activated with anti-CD3, IL-2 and TGF-β for 5 days; FoxP3 mRNA by qPCR on day 5; FIG. 3. The experiment is classed as cell-based. How it is done:
CD4+CD25+FOXP3+ regulatory T cells (Tregs) suppress pro-inflammatory cells and signals and are critical mediators of tolerance, inhibiting excessive inflammation and autoimmunity. Also, treatment of CD4+ T cells with interleukin 2 (IL-2) and transforming growth factor beta (TGF-β) signaling are important for FOXP3 induction and Treg formation.
Naïve CD4+ T human cells (cat. no 2W-200, Lonza) were cultured and activated with artificial antigen-presenting cells and soluble anti-CD3 (100 ng/ml) in the presence of IL-2 (300 U/ml) and TGF-β (10 ng/ml) for 5 days. On day 3, cells were transfected with an anti-sense RNA against JMJD3 (cat. No 1299001, Thermo) using Lipofectamine 2000 (cat. No 11668027, Thermo). On day 5, RNA was extracted and qPCR analysis was performed to evaluate FoxP3 mRNA levels by using the following primers: F: 5′-TCCACAACATGCGACCCCCTTTCA-3′ and R: 5′-ACAGCCCCCTTCTCGCTCTCCA-3′ having a 217 bp product. All JMJD3 inhibitors (99, 92, 93, 98, and 95) in CD4+ T cells induced 7-fold FoxP3 expression levels, thus moving towards differentiation and formation of Tregs. […] Thus, genetic or pharmacological inhibition of […] will result into FoxP3 activation and induction of Treg formation. Based on this evidence, JMJD3 inhibitors (99, 92, 93, 98, and 95)) could be used in autoimmune diseases where T-regulatory cells have therapeutic potential. There is increasing evidence and literature derived from human clinical studies (Arellano B et al., Regulatory T Cell-based Therapies for Autoimmunity, Discov Med, 22:73-80, 2016).

Chain of JMJD3 (O15054 whole entry, species assumed): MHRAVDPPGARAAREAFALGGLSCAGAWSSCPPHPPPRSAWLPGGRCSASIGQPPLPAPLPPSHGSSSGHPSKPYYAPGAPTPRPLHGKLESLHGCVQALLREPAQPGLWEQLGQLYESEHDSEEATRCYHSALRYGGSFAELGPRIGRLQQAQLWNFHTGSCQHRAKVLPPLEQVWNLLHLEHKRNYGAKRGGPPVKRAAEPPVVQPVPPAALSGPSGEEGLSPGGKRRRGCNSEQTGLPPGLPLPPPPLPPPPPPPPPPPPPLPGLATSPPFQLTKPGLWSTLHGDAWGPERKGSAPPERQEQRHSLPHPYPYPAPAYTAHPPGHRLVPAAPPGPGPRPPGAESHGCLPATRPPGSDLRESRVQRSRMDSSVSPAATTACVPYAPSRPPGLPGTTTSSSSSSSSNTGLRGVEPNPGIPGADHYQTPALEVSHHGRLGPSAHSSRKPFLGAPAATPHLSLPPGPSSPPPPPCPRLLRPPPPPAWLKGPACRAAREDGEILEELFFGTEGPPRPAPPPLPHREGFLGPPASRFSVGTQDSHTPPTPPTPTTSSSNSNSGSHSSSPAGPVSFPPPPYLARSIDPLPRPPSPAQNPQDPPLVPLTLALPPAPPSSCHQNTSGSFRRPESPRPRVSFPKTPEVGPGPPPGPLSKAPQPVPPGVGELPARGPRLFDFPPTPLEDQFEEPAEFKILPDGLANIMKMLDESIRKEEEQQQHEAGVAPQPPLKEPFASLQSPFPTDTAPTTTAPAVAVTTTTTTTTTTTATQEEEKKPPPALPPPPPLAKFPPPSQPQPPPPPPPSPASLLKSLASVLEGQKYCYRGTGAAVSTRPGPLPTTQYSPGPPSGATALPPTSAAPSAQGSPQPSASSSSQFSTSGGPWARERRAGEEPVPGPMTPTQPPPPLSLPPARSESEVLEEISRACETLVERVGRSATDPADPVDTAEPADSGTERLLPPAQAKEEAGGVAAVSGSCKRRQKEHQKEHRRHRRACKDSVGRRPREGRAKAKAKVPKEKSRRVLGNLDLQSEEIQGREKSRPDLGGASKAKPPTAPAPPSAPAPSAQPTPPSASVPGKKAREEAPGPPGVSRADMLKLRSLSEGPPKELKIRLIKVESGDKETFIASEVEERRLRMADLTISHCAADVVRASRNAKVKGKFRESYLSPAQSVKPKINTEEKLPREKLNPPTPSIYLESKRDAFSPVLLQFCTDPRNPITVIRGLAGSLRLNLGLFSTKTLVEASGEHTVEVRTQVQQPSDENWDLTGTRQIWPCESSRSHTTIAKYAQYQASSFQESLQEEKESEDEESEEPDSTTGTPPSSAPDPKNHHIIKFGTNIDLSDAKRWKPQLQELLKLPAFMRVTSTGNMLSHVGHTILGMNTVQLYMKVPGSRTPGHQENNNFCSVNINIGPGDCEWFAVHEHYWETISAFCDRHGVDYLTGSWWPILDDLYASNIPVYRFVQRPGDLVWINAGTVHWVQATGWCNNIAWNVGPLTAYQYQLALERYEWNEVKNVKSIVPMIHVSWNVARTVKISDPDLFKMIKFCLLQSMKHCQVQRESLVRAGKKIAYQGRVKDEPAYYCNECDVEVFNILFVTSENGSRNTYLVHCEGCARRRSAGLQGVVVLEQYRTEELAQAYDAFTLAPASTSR

Take `c1ccc2c(c1)ccn2-c1nc(N2CCNCC2)nc(-n2cccn2)n1` [Compound 90, 1-(4-(Piperazin-1-yl)-6-(1H-pyrazol-1-yl)-1,3,5-triazin-2-yl)-1H-indole]: the Kd on JMJD3 lay in the range of 0.1 to 0.5 µM.
On to `COCCNc1nc(-n2cccn2)nc(-n2ccc3ccccc32)n1` [Compound 89, 4-(1H-indol-1-yl)-N-(2-methoxyethyl)-6-(1H-pyrazol-1-yl)-1,3,5-triazin-2-amine], for which the “suppression of TNF-alpha (TNFA) expression after LPS treatment” value (“suppression … after LPS treatment” for short) in the experiment on THP-1 human monocytes [1] was “suppression”. Also, the Kd at JMJD3 was < 0.1 µM.
Turning to `CCOC(=O)CCNc1nc(-n2cccn2)nc(-n2cccn2)n1` [Compound 2, Ethyl 3-((4,6-di(1H-pyrazol-1-yl)-1,3,5-triazin-2-yl)amino)propanoate], the Kd on JMJD3 fell in the range of 0.1 to 0.5 µM.
Regarding `Fc1cc(F)cc(-c2nc(N3CCNCC3)nc(-n3cccn3)n2)c1` [Compound 99, 2-(3,5-difluorophenyl)-4-(piperazin-1-yl)-6-(1H-pyrazol-1-yl)-1,3,5-triazine], in the experiment with THP-1 human monocytes [2], the “suppression of TNF-alpha (TNFA)” value was “suppression”, the “suppression of interleukin 1beta (IL1B)” value is listed as “suppression”, the “suppression of interleukin 5 (IL5)” value is reported as “suppression” and the “suppression of interleukin 6 (IL6)” value is reported as “suppression”. Moreover, in the experiment on THP-1 human monocytes [2], the “suppression of interleukin 8 (IL8)” value is “suppression” and the “suppression of interleukin 13 (IL13)” value is “suppression”. In addition, the “FoxP3 expression levels (induction)” value with Naïve CD4+ T human cells is 7 fold.
Turning to `COCCCNc1nc(-n2cccn2)nc(-n2ccc3ccccc32)n1` [Compound 97, 4-(1H-Indol-1-yl)-N-(3-methoxypropyl)-6-(1H-pyrazol-1-yl)-1,3,5-triazin-2-amine], in the experiment on THP-1 human monocytes [1], the “suppression … after LPS treatment” value is “suppression”. The dissociation constant (Kd) at JMJD3 fell in the range of 0.1 to 0.5 µM.
Regarding `CCOC(=O)CCNc1nc(-c2cc(F)cc(F)c2)nc(-n2cccn2)n1` [Compound 8, Ethyl 3-((4-(3,5-difluorophenyl)-6-(1H-pyrazol-1-yl)-1,3,5-triazin-2-yl)amino)propanoate], on JMJD3, the Kd is < 0.1 µM.
Still for that read-out and setting: as for `c1ccc2c(c1)ccn2-c1nc(N2CCNC3(COC3)C2)nc(-n2cccn2)n1` [Compound 60, 8-(4-(1H-Indol-1-yl)-6-(1H-pyrazol-1-yl)-1,3,5-triazin-2-yl)-2-oxa-5,8-diazaspiro[3.5]nonane], the figure is < 0.1 µM.
Consider `Fc1cc(F)cc(-c2nc(N3CCOCC3)nc(-n3cccn3)n2)c1` [Compound 92, 4-(4-(3,5-Difluorophenyl)-6-(1H-pyrazol-1-yl)-1,3,5-triazin-2-yl)morpholine], for which, in the experiment with THP-1 human monocytes [2], the “suppression of TNF-alpha (TNFA)” value is “suppression”, the “suppression of interleukin 1beta (IL1B)” value is “suppression”, the “suppression of interleukin 5 (IL5)” value is recorded as “suppression” and the “suppression of interleukin 6 (IL6)” value is “suppression”. Besides, in the experiment on THP-1 human monocytes [2], the “suppression of interleukin 8 (IL8)” value was “suppression” and the “suppression of interleukin 13 (IL13)” value was “suppression”. Also, the “FoxP3 expression levels (induction)” value with Naïve CD4+ T human cells amounted to 7 fold. Besides, the “suppression … after LPS treatment” value in the experiment on THP-1 human monocytes [1] is listed as “suppression”. In addition, the Kd on JMJD3 was in the range of 0.1 to 0.5 µM.
`c1ccc2c(c1)ccn2-c1nc(N2CCOCC2)nc(-n2cccn2)n1` [Compound 94, 4-(4-(1H-Indol-1-yl)-6-(1H-pyrazol-1-yl)-1,3,5-triazin-2-yl)morpholine]: the “suppression … after LPS treatment” value in the experiment with THP-1 human monocytes [1] is on record as “suppression”. The dissociation constant (Kd) at JMJD3 lay within 0.1 to 0.5 µM.
For `CCOC(=O)CCNc1nc(-n2cccn2)nc(-n2ccc3ccccc32)n1` [Compound 6, Ethyl 3-((4-(1H-indol-1-yl)-6-(1H-pyrazol-1-yl)-1,3,5-triazin-2-yl)amino)propanoate], the Kd at JMJD3 was < 0.1 µM.
Turning to `Fc1cc(F)cc(-c2nc(N3CCC3)nc(-n3cccn3)n2)c1` [Compound 93, 2-(Azetidin-1-yl)-4-(3,5-difluorophenyl)-6-(1H-pyrazol-1-yl)-1,3,5-triazine], in the experiment on THP-1 human monocytes [2], the “suppression of TNF-alpha (TNFA)” value is reported as “suppression”, the “suppression of interleukin 1beta (IL1B)” value is “suppression”, the “suppression of interleukin 5 (IL5)” value is reported as “suppression” and the “suppression of interleukin 6 (IL6)” value is reported as “suppression”. Also, in the experiment on THP-1 human monocytes [2], the “suppression of interleukin 8 (IL8)” value is “suppression” and the “suppression of interleukin 13 (IL13)” value was “suppression”. For the same compound, the “FoxP3 expression levels (induction)” value in the experiment on Naïve CD4+ T human cells amounted to 7 fold. Moreover, the “suppression … after LPS treatment” value with THP-1 human monocytes [1] was “suppression”. Moreover, the Kd at JMJD3 was < 0.1 µM.
Regarding `COCNc1nc(-n2cccn2)nc(-n2ccc3ccccc32)n1` [Compound 98, 4-(1H-indol-1-yl)-N-(methoxymethyl)-6-(1H-pyrazol-1-yl)-1,3,5-triazin-2-amine], in the experiment with THP-1 human monocytes [2], the “suppression of TNF-alpha (TNFA)” value is on record as “suppression”, the “suppression of interleukin 1beta (IL1B)” value is reported as “suppression”, the “suppression of interleukin 5 (IL5)” value was “suppression” and the “suppression of interleukin 6 (IL6)” value is recorded as “suppression”. Further, in the experiment on THP-1 human monocytes [2], the “suppression of interleukin 8 (IL8)” value is “suppression” and the “suppression of interleukin 13 (IL13)” value is reported as “suppression”. For the same compound, in the experiment on Naïve CD4+ T human cells, the “FoxP3 expression levels (induction)” value is 7 fold.
On to `CCOC(=O)CCNc1nc(N2CCc3ccccc3CC2)nc(-n2cccn2)n1` [Compound 1, Ethyl 3-((4-(1H-pyrazol-1-yl)-6-(1,2,4,5-tetrahydro-3H-benzo[d]azepin-3-yl)-1,3,5-triazin-2-yl)amino)propanoate], for which the dissociation constant Kd at JMJD3 is < 0.1 µM.
`NC(=O)CCNc1nc(-c2cc(F)cc(F)c2)nc(-n2cccn2)n1` [Compound 96, 3-((4-(3,5-Difluorophenyl)-6-(1H-pyrazol-1-yl)-1,3,5-triazin-2-yl)amino)propanamide]: the Kd on JMJD3 is 0.1 to 0.5 µM.
On to `NC(=O)CCNc1nc(-n2cccn2)nc(-n2ccc3ccccc32)n1` [Compound 91, 3-((4-(1H-Indol-1-yl)-6-(1H-pyrazol-1-yl)-1,3,5-triazin-2-yl)amino)propanamide], for which the “suppression … after LPS treatment” value in the experiment on THP-1 human monocytes [1] was “suppression”. Besides, the Kd at JMJD3 fell in the range of 0.1 to 0.5 µM.
`CN1CCN(c2nc(-c3cc(F)cc(F)c3)nc(-n3cccn3)n2)CC1` [Compound 80, 2-(3,5-Difluorophenyl)-4-(4-methylpiperazin-1-yl)-6-(1H-pyrazol-1-yl)-1,3,5-triazine]: the Kd at JMJD3 was 0.1 to 0.5 µM.
